The results in this text go back to US20140011769A1, “Methods of Treating Retroviral Infections and Related Dosage Regimes” (Chimerix, Inc., priority 2012, published 2014).

For orientation: EC50 means the midpoint of the concentration-response curve.

“Also recorded” adds a separate entry of the source. Where two headings read alike, the source gives them in different places. Bounds are passed on as bounds.

For one data set, the system named is HTLV-I. As to the kind of experiment: Co-culture assay for HTLV-I, virus replication by p19 Gag ELISA. As to conditions: for antiviral activity: 2 weeks post infection, up to 25 μM; for EC50: read-out: HTLV-I EC50; for suppression of virus replication greater than 50% (p19 ELISA): 2 and 4 weeks co-culture; for concentration inhibiting HTLV-I virus replication from infected PBMCs: 3 weeks post-infection; for concentration inhibiting HTLV-I replication as measured by p19 ELISA: 2 weeks. Format: cell-based. Here is the method:
PBMC Preparation: Fresh human peripheral blood mononuclear cells (PBMCs), obtained from Biological Specialty Corporation, Bristol, Pa., were confirmed as seronegative for HIV and HBV. Depending on the volume of the donor blood received, the leukophoresed blood cells were washed several times with PBS. After washing, the leukophoresed blood was diluted 1:1 with Dulbecco's phosphate buffered saline (PBS) and layered over 15 mL of Ficoll-Hypaque density gradient in a 50 mL conical centrifuge tube. These tubes were then centrifuged for 30 min at 600 g. Banded PBMCs were gently aspirated from the resulting interface and subsequently washed three times with PBS by low speed centrifugation. After the final wash, cells were enumerated by trypan blue dye exclusion and re-suspended at 1×10^6 cells/mL in RPMI 1640 with 15% Fetal Bovine Serum (FBS), 2 mmol/L L-glutamine, 2 μg/mL phytohemagglutinin (PHA-P), 100 Units/mL penicillin and 100 μg/mL streptomycin and allowed to incubate for 48-72 hr at 37° C.
After incubation, PBMCs were centrifuged and resuspended in PBMC medium (RPMI 1640 with 15% FBS, 2 mmol/L L-glutamine, 100 U/mL penicillin, 100 μg/mL streptomycin and 20 U/mL recombinant human IL-2). The cultures were then maintained for the remainder of the experiment by exchange of half the culture volume with fresh IL-2 containing tissue culture medium every 3 days. Assays were initiated with PBMCs that had been induced to proliferate for 72 hr. Stimulated PBMCs from two donors were pooled together to minimize the variability between individual donors and 8×10^6 cells were resuspended in 9 mL of fresh tissue culture medium per T25 flask.
HDP-TFV was evaluated at concentrations of 0.04, 0.2, 1 and 10 μM. AZT and tenofovir were evaluated at concentrations of 0.1, 1, 5 and 25 μM. HDP-TFV, AZT, or tenofovir were added to the PBMCs 10 hours prior to infection.
MT-2 Preparation: MT-2 cells were obtained from the NIH AIDS Research and Reference Reagent Program and passaged in T-75 flasks in RPMI 1640 medium, supplemented with 10% heat inactivated fetal bovine serum, 2 mmol/L L-glutamine, 100 U/ml penicillin and 100 μg/ml streptomycin. Total cell and viability quantification were performed using hemocytometer and trypan blue dye exclusion. The cells were incubated in 10 mL of 200 μg/mL mitomycin C for 1 hour at 37° C./5% CO2, washed 3 times in Dulbecco's phosphate buffered saline (DPBS), and resuspended in PBMC medium at 1.6×10^6 cells per mL. One mL of treated MT-2 cells was added to each T25 flask, except for the PBMC only control.
(§1) Co-Culture for HTLV-I Replication: Cell cultures were incubated at 37° C./5% CO2 for four weeks. Cell viability and density was monitored by trypan blue dye exclusion test. Cell density was readjusted to 8×10^5 cells per mL on days 3, 7, 10, 14, 21 and 28. Compound was added with the half-volume fresh medium exchange on days 3, 7, and 10. Supernatant was collected on days 14, 21 and 28 for measurement of HTLV-I virus replication by p19 Gag ELISA. Cell samples were also collected on days 14 and 28 for genomic DNA extraction and PCR analysis of HTLV-I proviral DNA. Untreated PBMCs co-cultured with MT-2 cells, PBMCs alone, and mitomycin C-treated MT-2 cells alone were cultured in parallel as controls.
HTLV-I p19 Gag ELISA: ELISA was performed to quantify p19 in cell-free supernatants according to the manufacturer's instructions (ZeptoMetrix, Buffalo, N.Y.). Briefly, 50 μL of the kit p19 standard was added to 950 μL assay diluent in microtiter tubes and serially diluted 1:2. After washing the microtiter plate with 1× plate wash buffer, 200 μL of the diluted standards were added in duplicate to the coated wells. In duplicate, 200 μL of media was added as negative controls. Cell culture supernatants were diluted 1:9 with media and mixed with 50 μL of lysis buffer in duplicate. Two hundred microliters of diluted sample was added to the coated wells and incubated at 37° C. for 2 hours. […]
On the technique in general: An ELISA detects its analyte on a solid surface through an enzyme-linked reagent.

Another data set concerns infected PBMCs. Put plainly: Cell viability of infected PBMCs by trypan blue dye exclusion. In kind it is cell-based, human. The settings on record: for CC50: infected PBMCs, read-out: HTLV-I TC50; for toxicity as fresh compound was added to the cultures up to day 10: infected PBMC cultures. Here is the method: as §1
(§2) Anti-HTLV-I Evaluations: HDP-TFV K^+ salt and tenofovir were evaluated for HTLV-I inhibition in human PBMCs co-cultured with mitomycin C treated MT-2 cells at four concentrations of each compound. AZT was evaluated in parallel as a control compound. […] Cell viability was monitored by trypan blue dye exclusion. AZT and tenofovir were not toxic to the infected PBMCs at concentrations up to 25 μM at 2, 3, or 4 weeks post infection.
(§3) Anti-HTLV-I Evaluations: HDP-CDV and cidofovir were evaluated for HTLV-I inhibition in human PBMCs co-cultured with mitomycin C treated MT-2 cells at four concentrations of each compound. AZT was evaluated in parallel as a control compound. […] Cell viability was monitored by trypan blue dye exclusion. AZT was not toxic to the infected PBMCs at concentrations up to 25 μM at 2, 3, or 4 weeks post infection.

Assay in data set [1]: as above
In kind it is cell-based, human. The settings on record: human, infected PBMCs, read-out: HTLV-I TC50; for CC50 at 2 weeks: 2 wks post infection; for CC50 at 3 weeks: 3 wks post infection; for CC50 at 4 weeks: 4 wks post infection. Here is the method:
as §1, §2, §3

Where [2] appears, read: concentrations up to 25 μM at 2, 3, or 4 weeks post infection.
The mark [3] stands for this setting: Primate T-lymphotropic virus 1, MT2, 336 h, 2 wks post infection, human PBMCs co-cultured with mitomycin C treated MT-2 cells.
[4] abbreviates: Primate T-lymphotropic virus 1, MT2, 504 h, 3 wks post infection, human PBMCs co-cultured with mitomycin C treated MT-2 cells.
[5] abbreviates: Primate T-lymphotropic virus 1, MT2, 672 h, 4 wks post infection, human PBMCs co-cultured with mitomycin C treated MT-2 cells.

Regarding `C[C@H](Cn1cnc2c(N)ncnc21)OCP(=O)(O)O` [Tenofovir, (R)-9-(2-phosphonylmethoxypropyl)adenine], the antiviral activity result in the data set on HTLV-I is on record as “no antiviral activity”. The concentration for a half-maximal effect (EC50) in the data set on HTLV-I (2 wks post infection, human PBMCs co-cultured with mitomycin C treated MT-2 cells) is more than 25 µM; in the data set on HTLV-I (3 wks post infection, human PBMCs co-cultured with mitomycin C treated MT-2 cells) it was 10.3 µM; with HTLV-I (4 wks post infection, human PBMCs co-cultured with mitomycin C treated MT-2 cells), 4.5 µM. In addition, the CC50 in the data set on infected PBMCs (2 wks post infection), with infected PBMCs (3 wks post infection) and in the data set with infected PBMCs (4 wks post infection) was more than 25 µM throughout. For the same compound, the “toxicity to the infected PBMCs” value in the data set with infected PBMCs (setting [2]) is given as “not toxic”.
On to `CCCCCCCCCCCCCCCCOCCCOP(=O)(O)CO[C@H](CO)Cn1ccc(N)nc1=O` [HDP-CDV, hexadecyloxypropyl cidofovir], for which, in the data set on HTLV-I, the “suppression of virus replication greater than 50% (p19 ELISA)” value is “did not suppress; also recorded: not reached” and the “concentration inhibiting HTLV-I virus replication from infected PBMCs” value was “above 3 μM”. The EC50 in the data set with HTLV-I (setting [3]) was more than 10 µM. In the data set on HTLV-I (setting [4]), the EC50 is 0.4 µM. The EC50 in the data set with HTLV-I (setting [5]) was more than 10 µM. Also, the “concentration showing moderate antiviral activity” value in the data set on HTLV-I (four weeks of infected PBMC culture, inhibition may be attributed to observed toxicity) was not below 0.2 µM. In addition, in data set [1], the CC50 at 2 weeks was found to be 7.5 µM, the CC50 at 3 weeks amounted to 3.2 µM and the CC50 at 4 weeks is 1.4 µM. In addition, the “toxicity as fresh compound was added to the cultures up to day 10” value with infected PBMCs was “increasingly toxic”.
As for `Nc1ccn(C[C@@H](CO)OCP(=O)(O)O)c(=O)n1` [Cidofovir, (S)-9-(3-hydroxy-2-phosphonylmethoxypropyl)cytosine], the “suppression of virus replication greater than 50% (p19 ELISA)” value in the data set with HTLV-I is listed as “did not suppress”; with HTLV-I (listed as cidofovir) it was “not reached”. The “concentration inhibiting HTLV-I virus replication from infected PBMCs” value in the data set with HTLV-I worked out at 100 µM. The EC50 was more than 100 µM in the data set on HTLV-I (setting [3]), 87.8 µM with HTLV-I (setting [4]) and more than 100 µM with HTLV-I (setting [5]). For the same compound, the CC50 at 2 weeks in data set [1] was more than 100 µM. Besides, the CC50 at 3 weeks in data set [1] was more than 100 µM. Besides, the CC50 at 4 weeks in data set [1] was 80 µM. Moreover, in the data set on infected PBMCs (100 μM, following 4 weeks in culture), the “toxicity to the infected PBMCs” value is reported as “slightly toxic”.
Regarding `CCCCCCCCCCCCCCCCOCCCOP(=O)(O)CO[C@H](C)Cn1cnc2c(N)ncnc21` [HDP-TFV, 3-(hexadecyloxy)propyl hydrogen ((R)-1-(6-amino-9H-purin 9-yl)propan-2-yloxy)methylphosphonate], in the data set on HTLV-I, the “concentration inhibiting HTLV-I replication as measured by p19 ELISA” value is “above 7 μM”. Moreover, the EC50 in the data set on HTLV-I (Primate T-lymphotropic virus 1, MT2, 336 h) was found to be 6.8 µM; in the data set with HTLV-I (Primate T-lymphotropic virus 1, MT2, 504 h), 0.9 µM; in the data set on HTLV-I (Primate T-lymphotropic virus 1, MT2, 672 h), 0.2 µM. Also, the CC50 at 2 weeks in data set [1] was more than 10 µM. Besides, the CC50 at 3 weeks in data set [1] is 6.3 µM. Moreover, the CC50 at 4 weeks in data set [1] was found to be 1 µM. Also, the “toxicity as fresh compound was added to the cultures up to day 10” value in the data set with infected PBMCs was “increasingly toxic”.
With `Cc1cn([C@H]2C[C@H](N=[N+]=[N-])[C@@H](CO)O2)c(=O)[nH]c1=O` [AZT, 3′-azido-2′,3′-dideoxythymidine], in the data set with HTLV-I, the “concentration inhibiting HTLV-I replication as measured by p19 ELISA” value is on record as “above 3 μM” and the antiviral activity result is given as “no antiviral activity”. The EC50 in the data set with HTLV-I (setting [3]) is more than 25 µM. In addition, in the data set with HTLV-I (setting [4]), the EC50 is 3.2 µM. Moreover, the half-maximal effective concentration (EC50) with HTLV-I (setting [5]) worked out at 2.6 µM. In data set [1], the CC50 at 2 weeks was more than 25 µM, the CC50 at 3 weeks is more than 25 µM and the CC50 at 4 weeks was more than 25 µM. The “toxicity to the infected PBMCs” value in the data set on infected PBMCs (setting [2]) was “not toxic”.
